In patent US20170314074A1, “LPA-ASSOCIATED PROTEIN AND RNA EXPRESSION” (Intermune, Inc., priority 2014, published 2017):

How the values were obtained:
[1] = test system: fibroblasts and/or epithelial cells; assay: mRNA expression after LPA induction, Affymetrix Human Gene ST arrays, fibroblasts and/or epithelial cells (Table 3); type: cell-based
Procedure: (§1) Changes in gene expression after 3 hours of LPA induction were profiled on Affymetrix Human Gene ST 2.0 microarrays; differentially expressed genes identified by ANOVA with FDR <0.05 and fold-change >1.2. Process networks associated with differentially expressed genes were defined using MetaCore. Changes in secreted protein expression after 24 hours of LPA induction were profiled on an aptamer-based proteomic platform (1129 proteins); differentially expressed proteins identified by t-test.
(§2) Total RNA was isolated from normal human lung fibroblasts, human bronchial epithelial cells, and human pulmonary alveolar epithelial cells treated for […] with LPA and/or LPAR1 inhibitor. Each treatment condition was assayed in triplicate. Samples were profiled on Affymetrix Human Gene ST Arrays 1.0 and/or 2.0 after preparation using the Ambion WT Expression Kit according to manufacturers' instructions.
Data normalization and all subsequent analyses were performed in Partek Genomics Suite (Partek, St. Louis, Mo.). Data were normalized using the Robust Multi-array Average (RMA) algorithm. Differentially expressed genes were identified by ANOVA with correction for multiple comparisons with p-value with FDR<0.05. A fold-change cut-off was not strictly applied, although the majority of the differentially expressed genes identified have fold-changes greater than 1.2. […]

[2] = test system: normal human lung fibroblasts; assay: mRNA expression after LPA induction, Affymetrix Human Gene ST arrays, fibroblasts (Table 4A); type: cell-based; settings: fibroblasts; 1 μM LPA; average of 3 experiments
Procedure: as §1, §2
Data normalization and all subsequent analyses were performed in Partek Genomics Suite (Partek, St. Louis, Mo.). Data were normalized using the Robust Multi-array Average (RMA) algorithm. Differentially expressed genes were identified by ANOVA with correction for multiple comparisons with p-value with FDR<0.05. A fold-change cut-off was not strictly applied, although the majority of the differentially expressed genes identified have fold-changes greater than 1.2. Genes were included if they were statistically significant for (1) LPA-induction and (2) response to treatment with an LPAR1 inhibitor.
In Tables 1-5 The differentially expressed secreted proteins set forth in Tables 1, 2, and 5 and the differentially expressed mRNAs set forth in Table 3 and 4 were identified by visual inspection of individual dot-plots.
For the gene and protein expression analysis primary fibroblasts (NHLF product #CC-2512 from Lonza group LTD) and primary epithelial cells (NHBE Product #CC-2540 from Lonza; HPAEpiC Product #3200 from Sciencell (USA, California)) were cultured as recommended by the manufacturer, except they were cultured on collagen coated plates. As part of the induction protocol cells were starved overnight in low (0.2 or 0.1% serum) or no serum (0%), prior to stimulation with LPA.

lysophosphatidic acid [LPA]
changes in gene expression induced by LPA [1]: induced significant changes in gene expression | Effect of 1 μM LPA (fold-change), BIRC3 mRNA [2]: 3.17 fold-change | Effect of 1 μM LPA (fold-change), CHIC2 mRNA [2]: 2.36 fold-change | Effect of 1 μM LPA (fold-change), CNST mRNA [2]: 2.26 fold-change | Effect of 1 μM LPA (fold-change), CTGF mRNA [2]: 4.71 fold-change | Effect of 1 μM LPA (fold-change), CYR61 mRNA [2]: 6.52 fold-change | Effect of 1 μM LPA (fold-change), DKK1 mRNA [2]: 6.36 fold-change | Effect of 1 μM LPA (fold-change), DUSP1 mRNA [2]: 2.76 fold-change | Effect of 1 μM LPA (fold-change), EFNB2 mRNA [2]: 2.61 fold-change | Effect of 1 μM LPA (fold-change), GPR37 mRNA [2]: 2.80 fold-change | Effect of 1 μM LPA (fold-change), HAS2 mRNA [2]: 2.61 fold-change | Effect of 1 μM LPA (fold-change), HBEGF mRNA [2]: 5.11 fold-change | Effect of 1 μM LPA (fold-change), IER3 mRNA [2]: 2.94 fold-change | Effect of 1 μM LPA (fold-change), IL6 mRNA [2]: 4.19 fold-change | Effect of 1 μM LPA (fold-change), KPRP mRNA [2]: 4.31 fold-change | Effect of 1 μM LPA (fold-change), KRTAP1-5 mRNA [2]: 6.49 fold-change | Effect of 1 μM LPA (fold-change), KRTAP4-12 mRNA [2]: 3.23 fold-change | Effect of 1 μM LPA (fold-change), LIF mRNA [2]: 5.15 fold-change | Effect of 1 μM LPA (fold-change), MCP-1/CCL2 mRNA [2]: 5.58 fold-change | Effect of 1 μM LPA (fold-change), MIR218-1 [2]: 3.07 fold-change | Effect of 1 μM LPA (fold-change), PAI-1 mRNA [2]: 2.28 fold-change | Effect of 1 μM LPA (fold-change), PDCD1LG2 mRNA [2]: 2.52 fold-change | Effect of 1 μM LPA (fold-change), PTX3 mRNA [2]: 2.34 fold-change | Effect of 1 μM LPA (fold-change), SERPINB2 mRNA [2]: 2.44 fold-change | Effect of 1 μM LPA (fold-change), TNFAIP3 mRNA [2]: 3.44 fold-change | Effect of 1 μM LPA (fold-change), TXNIP mRNA [2]: −3.79 fold-change | Effect of 1 μM LPA (fold-change), UGCG mRNA [2]: 2.41 fold-change | Effect of 1 μM LPA (fold-change), VGLL3 mRNA [2]: 2.96 fold-change
